The subject of test [1] is human suffering from cardiovascular disease (hypertension). The experiment in a line: Resting blood pressure in a human suffering from cardiovascular disease taking NEM orally, case report. Format: in vivo. Particulars: first subject; atenolol 100 mg/day, before NEM. The protocol: (§1) The following examples are illustrative of the efficacy of an orally administered eggshell membrane product (trade name NEM®) in treating a human suffering from cardiovascular disease. […] The subject was treating their hypertension with 100 mg/day of atenolol. […] The subject had also had four cardiac stents placed to treat atherosclerotic stenosis (narrowing) of various cardiac blood vessels. The subject consumed one 500 mg capsule per day of NEM® as prepared in Example 5 for about 12 months before noticing an effect on lipid panel results. The subject continued the NEM® regimen for an additional approximately 12 months (about 2 years total). Follow-up lipid panel results were: TC=138 mg/dL, LDL=80 mg/dL, HDL=41 mg/dL, and TG=84 mg/dL. […] The subject also found it necessary to reduce the atenolol dose from 100 mg/day to 25 mg/day.

The test system of test [2] is human suffering from cardiovascular disease (hyperlipidemia, hypertriglyceridemia). In words: Lipid panel in humans suffering from cardiovascular disease taking NEM orally, case reports. Particulars: second subject; treated with 10 mg/day atorvastatin, before NEM. Format: in vivo. The protocol:
as §1
A second human with a recent history of cardiovascular disease (hyperlipidemia & hypertriglyceridemia only) was being treated with 10 mg/day of atorvastatin. Treated lipid panel results for this subject were: TC=207 mg/dL, LDL=114 mg/dL, HDL=47 mg/dL, and TG=247 mg/dL. […] The subject consumed one 500 mg capsule per day of NEM® as prepared in Example 5 for about 2 years. Follow-up lipid panel results were: TC=150 mg/dL, LDL=81 mg/dL, HDL=46 mg/dL, and TG=113 mg/dL.

For the molecule `CC(C)NCC(O)COc1ccc(CC(N)=O)cc1` (stereo not drawn) [atenolol], in test [1], the “resting diastolic blood pressure” value turned out to be 84 mm Hg and the “resting systolic blood pressure” value came out at 146 mm Hg.
For `CC(C)c1c(C(=O)Nc2ccccc2)c(-c2ccccc2)c(-c2ccc(F)cc2)n1CC[C@@H](O)C[C@@H](O)CC(=O)O` [atorvastatin], in test [2], the HDL stood at 47 mg/dL, the LDL turned out to be 114 mg/dL, the TG is reported as 247 mg/dL and the “Total cholesterol (TC)” value turned out to be 207 mg/dL.

The values are drawn from patent US10328104B2, “Methods for treating nuclear factor kappa-light-chain-enhancer of activated B cell (NF-κB) dysregulation in a host in need thereof using eggshell membrane compositions” (ESM TECHNOLOGIES, LLC, priority 2015, dated 2019).
